Data reported in patent publication US8642651B2, “Methods and compositions for improved chromium complexes” (VDF Futureceuticals, Inc., priority 2004, dated 2014).
Values joined by “and” are separate entries in the source; they are usually repeats but may differ in a detail not shown here. Equal entries are not always repeated.

Key:
L6 muscle cells = test: Total glucose uptake in L6 muscle cells (2-NBDG fluorescence); format: cell-based; conditions: 2 hrs treatment
Procedure: Total glucose uptake was measure using fluorescent analog of glucose, 2-NBDG (2-(N-(7-nitrobenz-2-oxa-1,3-diazol-4-yl)amino)-2-deoxyglucose) from Molecular Probes Inc. L6 myoblastic cells were treated for 2 hrs with tested compounds in culture medium SkBM from Clonetics. After washing, cells were transferred to HBSA (Hepes-buffered Saline), pH 7.0 with 50 mcM of 2-NBDG without glucose. One minute later, cells were washed with ice-cold PBS, and fixed in −20 C 70% ethanol. Fluorescence was measured at 480/530 (excitation/emission).

[1] = system: Streptozocin-induced insulin deficient rats; test: Fasted blood glucose in streptozocin-induced insulin deficient rats, chromium compounds in drinking water for four weeks; format: in vivo; conditions: for Fasted Blood Glucose (fold increase over four weeks): drinking water, about 42 μg/kg, four hrs fasting
Procedure: In vivo experiments gave much more dramatic differences, which are summarized in Table 1 below in which the increase in fasting blood glucose was measured after four weeks as compared to untreated animals: Streptozocin-induced insulin deficient rats were used to evaluate the insulin potentiating activity of several compounds. […] As consequence, these rats develop severe hyperglycemia. So far, certain known chromium compounds were known to potentiate action of insulin, however, the actual mechanism was not clearly understood. […] In our studies in vivo, chromium compounds were provided in drinking water for four weeks at a concentration of about 42 μg/kg. Vein blood was collected following four hrs fasting and used for fasted blood glucose level test. The study results for two tests are given below in Table 3 in which the increase in blood glucose in given as a fold increase over four weeks.

| Compound | Fold over Control, Average (L6 muscle cells; Conc. 10 nM) [fold] | Fold over Control, Average (L6 muscle cells; Conc. 100 nM) [fold] | Fold over Control, Average (L6 muscle cells; Conc. 1000 nM) [fold] | Fasted Blood Glucose (fold increase over four weeks) ([1]; STUDY 1) [fold] | also measured |
| --- | --- | --- | --- | --- | --- |
| O.O.O.O.O.O.[Cl][Cr]([Cl])[Cl] [CrCl3, CrCl3 hexahydrate, reference compound] | 1.55 | 2.05 | 2.08 | 1.32 | – |
| CN(C)C(=N)N=C(N)N [Metformin, reference compound] | – | – | – | 0.96 | – |
| Chromium-mono-Aminooxyacetate [CROA-1] | 1.72 | 2.36 | 2.39 | – | Fold over Control (single values) (L6 muscle cells; Conc. 10 nM): 1.41 fold and 1.66 fold and 2.10 fold; Fold over Control (single values) (L6 muscle cells; Conc. 100 nM): 2.12 fold and 2.16 fold and 2.80 fold; Fold over Control (single values) (L6 muscle cells; Conc. 1000 nM): 2.58 fold and 2.10 fold and 2.50 fold |
| chromium niacin [CrNiacin, reference compound] | – | – | – | 1.91 | – |
| chromium picolinate [Cr-picolinate, reference compound] | – | – | – | 2.02 | Fasted Blood Glucose (fold increase over four weeks) ([1]; STUDY 2): 2.37 fold; BLOOD GLUCOSE INCREASE (% of untreated) ([1]; diabetic rats, after four weeks, untreated = 100%): 95.56%; BLOOD GLUCOSE INCREASE ([1]; diabetic rats, increase in fasting blood glucose after four weeks): 2.37 |
